This note sets out measurements from patent US5223169A, “Hydrolase surfactant systems and their use in laundering” (priority 1991, dated 1993).

For test [1], the system named is enzyme from P. putida ATCC 53552 (lipase GC-1065). The test can be described thus: pH-stat assay of triglyceride emulsion hydrolysis; critical oil-to-surfactant ratio. The note with it: for Enzyme Activity (initial rate of hydrolysis): enzyme 2 ppm; for Specific Activity determined from initial rates, GC-1065, High / Critical Ratio, GC-1065, High / Critical Ratio, GC-1065, Low / Specific Activity determined from initial rates, GC-1065, Low: trioctanoin emulsions; for Specific Activity determined from initial rates, GC-1065, High: high surfactant conc. as E41; for Critical Ratio, GC-1065, High / Critical Ratio, GC-1065, Low: lipase ~2 ppm; for Critical Ratio, GC-1065, High: high surfactant conc.: SDS 10 mM, C12 LAS 5 mM, Neodol 25-9 5 mM, Neodol 25-3S 10 mM, Surfonic JL-80X 5 mM, Triton X-100 10 mM, C16 DAPS 10 mM; for Critical Ratio, GC-1065, Low: low surfactant conc.: SDS 2 mM, Surfonic JL-80X 0.5 mM, Triton X-100 2 mM, C16 DAPS 0.5 mM; for Specific Activity determined from initial rates, GC-1065, Low: low surfactant conc. as E40. Format: biochemical, Pseudomonas putida. The text has this:
(§1) To determine the critical ratio for any specific enzyme-surfactant combination, aliquots of an aqueous solution, each containing a determined (constant) amount of the enzyme which is effective in the absence of any surfactant to hydrolyze the triglycerides in an oily stain on a determined (constant) amount of a fabric soiled by a determined (constant) amount of a triglyceride oil, are mixed with a determined (constant) amount of a surfactant which is within the range of the amounts conventionally present in home laundry solutions, e.g., from about 0.2 to 1.5. mM, and which is effective to inhibit the hydrolyzing activity of the enzyme. To the aliquots are added a hydrolysis activator, e.g., trioctanoin, in increasing amounts and the hydrolyzing activity of the enzyme in the various solutions is determined.
(§2) The experiments determining enzyme activity, such as those set out in Tables IA and IB, were carried out as follows:
(§3) The desired amount of triglyceride was weighed into an appropriate size beaker, on a Mettler balance (model number AE163). The corresponding amount of surfactant was added to the triglyceride, from a previously prepared aqueous surfactant stock solution, and the triglyceride and surfactant mixed manually. The sample was then adjusted to the desired weight using doubly distilled H2 O. Emulsification of the sample was carried out, prior to assaying enzyme activity, with a probe sonicator (Braun-Sonic model 2000), on ice, for approx. 2 minutes.
(§4) (ii) Enzyme Activity Measurement:
(§5) This was achieved by monitoring the rate of acid liberation, from the enzymatic hydrolysis of the triglycerides in the emulsion. The assay was initiated by adding approx. 2 ppm lipase to 10 ml of the prepared emulsion. The acid liberated was monitored by autotitration, on a Radiometer pH-stat (model number ABU80) to an endpoint of a pH of 10. Initial rates were recorded for the first 5 minutes of the reaction, and the reaction rates reported as μmole H^+ titrated . min ^-1 mgE^-1. Occasionally enzyme activity is reported as % total oil hydrolyzed in 14 min. In these examples, the reaction was allowed to run for 14 min. and the amount of acid titrated recorded. The % total oil (triglyceride) hydrolyzed was then calculated by dividing the recorded value with the theoretically calculated value assuming three equivalents of oleic acid was produced for each triglyceride equivalent. All assays were run at ambient temperatures.

Test [2] concerns the target T1, Enzyme Amano P (Burkholderia cepacia, UniProt P22088).
T1 construct: purchased Amano Co
The description is as above. Format: biochemical, P. fluorescens. The note with it: trioctanoin 5 mm + hexadecane 10 mm, Neodol 25-3S 0.5, system ratio 40.
Text: as §1, §2, §3, §4, §5

Where [3] appears, read: C12 LAS 1 mM, Neodol 25-9 0.5 mM, Neodol 25-3S 2 mM.
Where [4] appears, read: Table II, trioctanoin, surfactant conc.: SDS 2 mM, C12 LAS 1 mM, Neodol 25-3S 2 mM, Neodol 25-9 0.5 mM, Surfonic JL80X 0.5 mM, Triton X100 2 mM.

Some results are limits rather than exact numbers.

T1 sequence (P22088 45-364): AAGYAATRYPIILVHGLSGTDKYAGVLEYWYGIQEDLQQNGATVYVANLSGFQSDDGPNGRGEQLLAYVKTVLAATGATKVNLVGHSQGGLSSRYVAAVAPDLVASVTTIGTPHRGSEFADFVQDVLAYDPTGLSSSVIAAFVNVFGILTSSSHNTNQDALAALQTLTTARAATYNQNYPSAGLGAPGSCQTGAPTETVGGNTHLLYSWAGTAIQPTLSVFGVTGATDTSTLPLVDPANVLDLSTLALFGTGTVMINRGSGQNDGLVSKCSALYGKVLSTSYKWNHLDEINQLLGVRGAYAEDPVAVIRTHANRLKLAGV

In the case of `CCCCCCCCCCCCCCCC[N+](C)(C)CCCS(=O)(=O)[O-]` [C16 DAPS], the “Enzyme Activity (initial rate of hydrolysis)” value was 0 μmole H^+ released min^-1 mgE^ in test [1] (trioctanoin 0.5 mM, surfactant 0.5 mM, system ratio 1); 0 μmole H^+ released min^-1 mgE^ in test [1] (trioctanoin 2.5 mM, surfactant 0.5 mM, system ratio 5); 0 μmole H^+ released min^-1 mgE^ in test [1] (trioctanoin 5 mM, surfactant 0.5 mM, system ratio 10); 334 μmole H^+ released min^-1 mgE^ in test [1] (trioctanoin 10 mM, surfactant 0.5 mM, system ratio 20); 0 μmole H^+ released min^-1 mgE^ in test [1] (trioctanoin 10 mM, surfactant 10 mM, system ratio 1); 405 μmole H^+ released min^-1 mgE^ in test [1] (trioctanoin 15 mM, surfactant 0.5 mM, system ratio 30). In addition, the “Enzyme Activity (initial rate of hydrolysis)” value in test [1] (trioctanoin 20 mM, surfactant 0.5 mM, system ratio 40) is recorded as 370 μmole H^+ released min^-1 mgE^; in test [1] (trioctanoin 50 mM, surfactant 10 mM, system ratio 5) it was 0 μmole H^+ released min^-1 mgE^; in test [1] (trioctanoin 200 mM, surfactant 10 mM, system ratio 20), 398 μmole H^+ released min^-1 mgE^; in test [1] (trioctanoin 300 mM, surfactant 10 mM, system ratio 30), 370 μmole H^+ released min^-1 mgE^; in test [1] (trioctanoin 400 mM, surfactant 10 mM, system ratio 40), 417 μmole H^+ released min^-1 mgE^. Also, the “critical ratio (system ratio of oil to surfactant at which enzymatic activity begins)” value in test [1] (trioctanoin as oil, surfactant 0.5 and 10 mM (Table IA)) is reported as 10-20. The “Specific Activity determined from initial rates, GC-1065, High” value in test [1] was 450 μeq acid/min.mg. Besides, the “Critical Ratio, GC-1065, High” value in test [1] was 10-20. For the same compound, the “Critical Ratio, GC-1065, Low” value in test [1] (setting [3]) was 10-20. Besides, the “Specific Activity determined from initial rates, GC-1065, Low” value in test [1] was found to be 450 μeq acid/min.mg.
`CCCCCCCCCCCC(=O)N(CC)CC` [N,N-diethyldodecanamide]: the “Enzyme Activity” value in test [1] (no trioctanoin, N,N-diethyldodecanamide 10.0 mm, Neodol 25-9 0.5 mm) is given as < 5 μeq of fatty acid produced in 14 minutes; in test [1] (trioctanoin 2.5 mm, N,N-diethyldodecanamide 2.5 mm, Neodol 25-9 0.5 mm) it was 5 μeq of fatty acid produced in 14 minutes; in test [1] (trioctanoin 2.5 mm, N,N-diethyldodecanamide 5.0 mm, Neodol 25-9 0.5 mm), 12 μeq of fatty acid produced in 14 minutes; in test [1] (trioctanoin 2.5 mm, N,N-diethyldodecanamide 7.5 mm, Neodol 25-9 0.5 mm), 19 μeq of fatty acid produced in 14 minutes.
With `CCCCCCCCCCCCCCCC` [Hexadecane, hexadecane], the “Enzyme Activity” value in test [1] (triolein 0.3 mM + hexadecane 1.2 mM, Surfonic JL-80X 0.3 mM, system ratio 5) was 8 μmole H^+ released min^-1 mgE^; in test [1] (triolein 0.3 mM + hexadecane 1.2 mM, Surfonic JL-80X 0.3 mM, system ratio 5, listed as hexadecane), “active”; in test [2] it was 45 μmole H^+ released min^-1 mgE^.
In the case of `CCCCCCCC/C=C\CCCCCCCC(=O)[O-].[Na+]` [Na Oleate, sodium oleate], the “Enzyme Activity” value is reported as 0 μmole H^+ titrated . min ^-1 m in test [1] (triolein substrate, surfactant 0.3 mM, system ratio 1); 0 μmole H^+ titrated . min ^-1 m in test [1] (triolein substrate, surfactant 0.3 mM, system ratio 5); 0 μmole H^+ titrated . min ^-1 m in test [1] (triolein substrate, surfactant 0.3 mM, system ratio 10); 60 μmole H^+ titrated . min ^-1 m in test [1] (triolein substrate, surfactant 0.3 mM, system ratio 20); 90 μmole H^+ titrated . min ^-1 m in test [1] (triolein substrate, surfactant 0.3 mM, system ratio 30).
Triton X-100: in test [1] (setting [4]), the “Critical Ratio” value is listed as 10-15 and the “Enzyme Activity” value is 450 μmole H^+ released min^-1 mgE^. In test [1], the “Specific Activity determined from initial rates, GC-1065, High” value is listed as 400 μeq acid/min.mg; the “Critical Ratio, GC-1065, High” value is on record as 15-20; the “Specific Activity determined from initial rates, GC-1065, Low” value worked out at 450 μeq acid/min.mg. In addition, in test [1] (setting [3]), the “Critical Ratio, GC-1065, Low” value is 10-15.
